Source: patent US20130012527A1, “PREQ1 RIBOSWITCHES AND METHODS AND COMPOSITIONS FOR USE OF AND WITH PREQ1 RIBOSWITCHES” (YALE UNIVERSITY, priority 2007, published 2013)

Tests used:
wild-type 80 queC RNA = test: In-line probing analysis of wild-type 80 queC RNA; type: binding, B. subtilis; details: for structure modulation: wild-type 80 queC, 200 μM
Source text: This possibility was examined by comparing the ligand binding characteristics of a wild-type queC construct (80 queC) with those of two mutant RNAs in which absolutely conserved cytidine residues were individually replaced with uridines (FIG. 6a). 2,6-diaminopurine was included in the panel of test compounds since it was previously established that the 2-amino group was critical for ligand recognition by the preQ1 aptamer (FIG. 4c). It was therefore anticipated that compounds lacking this moiety, such as adenine or 7-aminomethyl-7-deazaadenine, might not bind detectably, despite their potential for base pairing with a uridyl discriminator residue.
(§1) In-line probing analysis. […] .

[1] = test system: M1 RNA (80 queC, cytidine 34 replaced with uridine); test: In-line probing analysis of 80 queC mutant M1; type: binding, B. subtilis; details: for structure modulation: 200 μM
[2] = target: 52 queC RNA (B. subtilis queC element); test: In-line probing analysis of 52 queC RNA; type: binding; details: in-line probing over a range of ligand concentrations, read-out: Kd (apparent)
Description: RNA construct 52 queC (FIG. 4a) was used to examine the degree of ligand selectivity of the B. subtilis queC element. Affinities for various purine compounds were determined by subjecting 5′ ^32P-labeled 52 queC to in-line probing analyses using a range of ligand concentrations, followed by the quantitative analysis of the levels of ligand-dependent structure modulation.
A more detailed understanding of the molecular contacts involved in ligand recognition by 52 queC was obtained by determining the apparent Kd values for a series of purine analogs (FIG. 4c).

106 queC RNA = test: Equilibrium dialysis, competition with 3H-guanine; type: binding, B. subtilis; details: 100 nM 3H-guanine, 20 μM RNA, unlabeled compound at a concentration exceeding that of the RNA
Source text: To provide additional support for a specific physical interaction between preQ1 and the queC RNA motif, competitive binding experiments were done using an equilibrium dialysis apparatus containing two chambers separated by a permeable membrane with a molecular weight cut-off of 5000 Daltons (FIG. 4d). Because guanine is recognized by the queC motif with nanomolar affinity (FIG. 4c), we first added ^3H-guanine and a molar excess of 106 queC RNA individually to the respective chambers. […].
Samples containing either 100 nM ^3H-guanine or 20 μM 106 queC RNA, each prepared in the same buffer solution used for in-line probing, were added in 30 μL volumes to opposite chambers of a DispoEquilibrium Dialyzer (ED-1, Harvard Bioscience). Following equilibration at 25° C. for 10-15 h, aliquots of 5 μL were withdrawn and quantitated with a liquid scintillation counter. For competitive binding experiments, 3 μL of buffer containing 1 mM unlabeled test compound was subsequently delivered to the RNA-containing chamber, while the same volume of buffer was added to the opposite chamber. After another equilibration period, 5 μL aliquots were again removed to assess the distribution of ^3H-guanine.

[3] = test system: queC RNA construct containing the analogous C34U mutation; test: In-line probing of a queC RNA construct with the analogous C34U mutation; type: binding; details: concentrations as high as 1 mM
Source text: as §1

With `Nc1nc(N)c2[nH]cnc2n1` [2,6-diaminopurine] the Kd (wild-type 80 queC RNA; 80 queC) was > 300000 nM, the “lowest concentration at which alterations in structure are detected” value (wild-type 80 queC RNA; 80 queC) was 10 µM and the structure modulation (wild-type 80 queC RNA) was “Structural changes in this construct are also induced”. For the same molecule, the “relative loss in binding affinity” value ([1]; C34U mutant with 2,6-diaminopurine versus wild-type queC RNA with guanine) was “more than 600 fold”, the structure modulation ([1]; M1 (C34U)) was “key changes are observed” and the Kd ([1]; M1 (C34U), data not shown) was > 300000 nM.

`N#CC1C=Nc2nc(N)[nH]c(=O)c21` (stereo not shown) [preQ0, 7-cyano-7-deazaguanine] gave a Kd [2] of ~100 nM.

`Nc1ncnc2nc[nH]c12` [adenine] was tested, and the structure modulation (wild-type 80 queC RNA) was “does not result in structure modulation”, the structure modulation ([1]; M1 (C34U)) was “failure of adenine to induce any conformational response” and the “binding to M1 RNA” value ([1]; M1 (C34U), in words) was “absence of adenine binding”. The “competition with 3H-guanine sequestration in the RNA chamber” value (“competition” for short) (106 queC RNA) was “did not serve as a competitor”.

`NCC1C=Nc2ncnc(N)c21` (stereo not shown) [7-aminomethyl-7-deazaadenine] was tested, and the “modulation of RNA structure” value [3] was “fail to modulate the structure”.

`Nc1nc2nc[nH]c2c(=O)[nH]1` [guanine] was tested, and the Kd [2] was ~500 nM, the structure modulation (wild-type 80 queC RNA) was “structure modulation occurs” and the “competition” value (106 queC RNA) was “competitively reversed”.

`Nc1nc2c(c(=O)[nH]1)CC=N2` [7-deazaguanine] was tested, and the “competition” value (106 queC RNA) was “competitively reversed”.
